Test system: CFTR-dependent Cl— transport
Assay: Ussing chamber: forskolin-induced short-circuit current of jejunum segments pre-incubated ex vivo with ion channel blockers
Set-up: species or system BALB/c wild-type (WT) mice
Details: jejunum of OVA-treated mice; DIDS (100 μM) or CFTRInh172 (20 μM) in mucosal reservoir
Method: Oral Antigen-Induced Intestinal Anaphylaxis. 4-8-week-old mice were sensitized to ovalbumin (OVA) ([…] of OVA/1 mg of alum in sterile saline by intraperitoneal (i.p.) injection) and received repeated oral gavage (o.g.) challenge with OVA (250 μl of OVA (50 mg) in saline or 250 μl of saline (vehicle)) as previously described (Ahrens et al., American Journal of Pathology 180, 1535-1546, doi:10.101/j.ajpath.2011.12.036 (2012)). Prior to each o.g. challenge, mice were deprived of food for 4-5 hours. Rectal temperatures were measured prior to challenge and then every 15 minutes for 60 minutes. […] Evidence of secretory diarrhea was assessed by determination of short-circuit current (Isc) of small intestine (Si) segments ex vivo in a Ussing chamber system up to 60 minutes following o.g. challenge. […]
Ussing chambers. […] The transepithelial potential difference (PD) was detected with two paired electrodes that contained 4% agar in 3 M KCl. […] To establish equilibrium, PD was continuously monitored under open-circuit conditions for 15 min. […] For ion conductance experiments, changes in Isc were determined for the cumulative addition of forskolin and acetylcholine to the serosal reservoir. After the peak response to the final concentration of each agonist was recorded, the Krebs buffer on each side of the chamber was replaced, and the tissue was allowed to equilibrate for 30 minutes. […]

O=C(O)c1ccc(/C=C2\SC(=S)N(c3cccc(C(F)(F)F)c3)C2=O)cc1 [CFTR^inh172]
Forskolin-induced ΔIsc: abrogated

O=S(=O)(O)c1cc(N=C=S)ccc1C=Cc1ccc(N=C=S)cc1S(=O)(=O)O [DIDS, 4,4′-Diisothiocyanatostilbene-2,2′-disulfonate]
Forskolin-induced ΔIsc: not

— US20230096203A1, “METHODS FOR DETECTING FOOD ALLERGIES” (THE REGENTS OF THE UNIVERSITY OF MICHIGAN, priority 2020, published 2023)
